Measurements from US7410955B2, “Therapeutic use of agonist ligands specific to G2A receptor” (Biosynergen, Inc., priority 2002, dated 2008).

Assays:
neutrophils = experiment: Inhibition of anti-apoptosis of neutrophils by inflammation mediators (AcOr/EtBr staining); assay type: cell-based, human; settings: 15 μM and 30 μM
Description: (§1) Neutrophils were isolated from healthy adults using discontinuous percoll gradient according to the method of Szucs, S. et al. (J. Immunol. Methods, 167: 245-251, 1994). First, plasmas were separated from heparinized whole blood, and red blood cells were depleted by dextran sedimentation. Thereafter, leukocytes were layered over a percoll gradient with densities of 1.077 and 1.094 (Pharmacia, Sweden). Separated neutrophil layers were recovered from the percoll gradient interface, and then washed with HBSS (Hank's balanced salt solution, Sigma Chemical Co., USA). The remaining pellet was resuspended in RPMI 1640 medium supplemented with 10% FBS (fetal bovine serum) and 2 mM gentamicin. As a result of the examination of the cytospin stained with Wright-Giemsa (Sigma Chemical Co., USA), it was observed that the resuspension solution contained 95% or more neutrophils. Also, as a result of examination using trypan blue dye exclusion method, 98% or more neutrophils were observed.
1×10^5 neutrophil cells isolated in above Example <1-1> were cultured in a 96-well plate to which RPMI1640 medium containing 10% FBS was added. Thereafter, they were treated with 1-stearoyl lysophosphatidylcoline (Sigma Chemical Co., USA) in concentrations of 15 μM and 30 μM, respectively. After 1 hour, they were treated with 1 μg/ml LPS (Sigma Chemical Co.). After 24 hours, the medium was removed from the plats, and the remaining cells were washed twice with PBS (phosphate-buffered saline) buffer at 4° C. The cells adhered to the bottom of the plate were all scraped and put into a 1.5-ml eppendorf tube. Then, they were centrifuged at 2500 rpm for 5 min, and the supernatant was removed. Again, 0.1 ml of PBS buffer at 4° C. was added to the pellet, which was then well mixed using pipetting. To 25 μl of the cell suspension was added 2 μl of AcOr/EtBr dye solution in which 100 μg/ml of acridine orange (AcOr) and 100 μg/ml of ethidium bromide (EtBr) were mixed. Then, the percentage of apoptotic cells/total cells was calculated with observing the neutrophil cells under a fluorescence microscope. […]

neutrophils (human PMNs) = experiment: IL-8 release induced by LPS in neutrophils (ELISA); assay type: cell-based; settings: 15 μM and 30 μM, 1 hour before 1 μg/ml LPS, supernatant after 3 hours
Description: as §1, with “observed. […]” for “observed.”
The neutrophils and monocytes isolated in Examples <2-1> and <2-2> above were cultured in a 96-well plate to which RPMI1640 medium containing 10% FBS was added, at a concentration of 1×10^5 cells/well/0.2 ml, respectively. […] Then, the level of IL-8 was measured using ELISA kit (Biosource, USA).

E. coli = experiment: In vitro antibacterial activity of LPC (CFU on LB media); assay type: cell-based; settings: for CFU: 37° C., 12 hours
Method: Four petridishes per group were used. For a control group, only LB media was poured onto four 60-mm petridishes and hardened. The peritoneal cavity of mice according to Example <6-1> was washed with sterilized saline. The resultant solution was diluted with HBSS in a ratio of 1/100, and then 10 μl of the diluted solution was spread on the media for each group. Subsequently, after they had been incubated in a bacteria incubator maintained at 37° C. for 12 hours, colony forming unit (CFU) was visibly measured.

[1] = tested on: myeloperoxidase (MPO) in pulmonary tissues; experiment: Systemic LPS-induced acute lung injury model, lung MPO activity; assay type: in vivo, ICR mice
Method: ICR mice (25-30 g in body weight; MJ Ltd.) were intraperitoneally injected with LPS (induced from E. coli 055:B5) in an amount of 1 mg/kg thereby inducing Sepsis.
The activity of myeloperoxidase (MPO), an indicator of neutrophils, in pulmonary tissues was determined according to the methods of Goldblum et al (J. Appl. physiol. 59: 1978, 1985) and Parey et al (J. Immunol. 160:1007, 1998). First, mice were sacrificed and pulmonary tissues were obtained therefrom. The tissues had been homogenized in potassium phosphate buffer, and centrifuged to obtain pellets. These pellets were sonicated in potassium phosphate buffer containing 0.5% hexadecyltrimethylammonium bromide (HTAB), and incubated at 60° C. for 120 min. After centrifugation, supernatants were obtained. […] Accordingly, the absorbance of the mixture was determined at a wavelength of 460 nm. […]
ICR mice in LPS-induced septicemia model according to Reference Example <1-1> b) were divided into five groups of 7 mice (Sham group, an experimental group-1, an experimental group-2, an experimental group-3 and a control group). […] At 24 hours after LPS had been administered, the activity of MPO, an indicator of neutrophils, in the pulmonary tissues of the mice of each group, was determined as described in Reference Example 2.

CCCCCCCCCCCCCCCCCC(=O)OCC(O)COP(=O)([O-])OCC[N+](C)(C)C (stereo not drawn) [1-stearoyl LPC, 1-stearoyl (18:0) lysophosphatidylcholine]
percentage of neutrophil apoptosis (apoptotic cells/total cells) that had been decreased by LPS (neutrophils; 1 hour before 1 μg/ml LPS, read after 24 hours): increased by 1-stearoyl LPC in a concentration-dependent manner
percentage of neutrophil apoptosis that had been decreased by endogenous inflammation mediators (neutrophils; 100 ng/ml GM-CSF, 100 ng/ml G-CSF or 100 ng/ml IFN-γ instead of LPS): increased by 1-stearoyl LPC in a concentration-dependent manner
level of IL-8 release that had been increased by LPS in neutrophils (neutrophils (human PMNs)): inhibited by LPC in a concentration-dependent manner
CFU (E. coli; LPC conc. 12 μM in LB media): 661 ± 285
CFU (E. coli; LPC conc. 60 μM in LB media): 639 ± 304
CFU (E. coli; LPC conc. 300 μM in LB media): 611 ± 281
in vitro direct antibacterial effects against E. coli (E. coli; summary of Table 1): no in vitro direct antibacterial effects
activity of MPO in pulmonary tissues ([1]; 20 mg/kg subcutaneous (experimental group-3), p<0.01): the most excellent effects
activity of MPO in pulmonary tissues ([1]; 5, 10 and 20 mg/kg subcutaneous, 2 and 14 hours after intraperitoneal LPS 1 mg/kg, 24 hours after LPS, vs control group): suppressed in a concentration-dependent manner
